Source: PubChem BioAssay (NCI)
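How tested: cells in 96-well plates exposed to compound for 48 hours at five concentrations. Abbreviation: GI50, concentration required for 50% inhibition of growth. Definition used: TGI = concentration required for complete inhibition of growth.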 Where a SMILES comes first, the peptide text is derived from it.

Key:
Test in all cases: inhibition of tumour cell growth, NCI panel, 48 h
[1] = tested on: A498 renal
[2] = tested on: CAKI-1 renal
[3] = tested on: DU-145 prostate
[4] = tested on: HT29 colon
[5] = tested on: M14 melanoma
[6] = tested on: MCF7 breast
[7] = tested on: NCI-H226 lung
[8] = tested on: NCI-H522 lung
[9] = tested on: OVCAR-8 ovarian
[10] = tested on: T-47D breast

| Structure (SMILES) | TGI [1] | TGI [2] | TGI [3] | TGI [4] | TGI [5] | TGI [6] | TGI [7] | TGI [8] | TGI [9] | TGI [10] | GI50 [1] | GI50 [3] | GI50 [6] | GI50 [7] | GI50 [8] | GI50 [10] |
| --- | --- | --- | --- | --- | --- | --- | --- | --- | --- | --- | --- | --- | --- | --- | --- | --- |
| COc1cccc(OC/C(N=Cc2ccncc2)=N/NC(=O)c2ccncc2)c1 | > 100 µM | > 100 µM | > 100 µM | > 100 µM | > 100 µM | > 100 µM | > 100 µM | > 100 µM | > 100 µM | > 100 µM | – | – | – | – | – | – |
| CCCCCCCCCCC[N+]1(Cc2ccccc2)CC2CCN(Cc3ccccc3)CC2C1 (stereo unspecified) | 2.88 µM | 2.74 µM | 1.51 µM | 1.71 µM | 1.48 µM | 1.62 µM | 1.98 µM | 1.29 µM | 1.5 µM | 1.37 µM | – | – | – | – | – | – |
| COC(=O)NC(Nc1ccc(C)cc1)(C(F)(F)F)C(F)(F)F | > 100 µM | > 100 µM | > 100 µM | > 100 µM | > 100 µM | > 100 µM | > 100 µM | > 100 µM | > 100 µM | > 100 µM | – | – | – | – | – | – |
| O=C1/C(=C/c2cccs2)N=C(c2ccccc2)N1c1nc2ccccc2s1 | > 100 µM | > 100 µM | > 100 µM | > 100 µM | > 100 µM | > 100 µM | > 100 µM | 17.3 µM | > 100 µM | > 100 µM | – | – | – | – | – | – |
| CCCCNC(=S)Nc1nc(C(=O)NNC(=S)NCc2ccccc2)cs1 | > 100 µM | 90.1 µM | > 100 µM | > 100 µM | > 100 µM | > 100 µM | > 100 µM | > 100 µM | > 100 µM | 59.3 µM | – | – | – | – | – | – |
| c1cc2c3c(c1)[C@@H]1O[C@@H]1c1cccc(c1-3)[C@@H]1O[C@H]21 | > 100 µM | 32.7 µM | 38.7 µM | 50.1 µM | 34.1 µM | > 100 µM | > 100 µM | 30.1 µM | 46.2 µM | 62.8 µM | – | – | – | – | – | – |
| C#Cc1cccc(Nc2ncnc3cc(OCCOC)c(OCCOC)cc23)c1 | 45.8 µM | 10 µM | > 100 µM | > 100 µM | > 100 µM | > 100 µM | > 100 µM | 27.1 µM | > 93.3 µM | > 100 µM | 2.19 µM | 1.6 µM | > 100 µM | 47.4 µM | 0.901 µM | 4.17 µM |
| C=C1CC(Cn2cc(Br)c(=O)[nH]c2=O)(c2ccc(Br)cc2)OC1=O (stereo unspecified) | 10.2 µM | 7.13 µM | 15.5 µM | 7.89 µM | 3.22 µM | 14.4 µM | 36.6 µM | 3.19 µM | > 100 µM | 5.04 µM | – | – | – | – | – | – |
| CCC(C)C(NC(=O)C1CCCN1)C(=O)NC(C(=O)NCC(=O)NC(CC(N)=O)C(=O)NC(CC(C)C)C(=O)NC(CC(C)C)C(=O)NC(CCCCN)C(N)=O)C(C)C (stereo unspecified) (H-PIVGNLLK-NH2; configuration not given here) | > 75 µM | > 75 µM | > 75 µM | > 75 µM | > 75 µM | > 75 µM | > 75 µM | > 75 µM | > 75 µM | > 75 µM | – | – | – | – | – | – |
| O=C1/C(=C/C=C/c2ccccc2)CCC1CNc1ccc(Br)cc1 (stereo unspecified) | > 100 µM | > 100 µM | > 100 µM | > 100 µM | > 100 µM | > 100 µM | > 100 µM | 57 µM | > 100 µM | > 100 µM | – | – | – | – | – | – |
| Cc1cn(C2CC(SCCO)C(CO)O2)c(=O)[nH]c1=O (stereo unspecified) | > 100 µM | > 100 µM | > 100 µM | > 100 µM | > 100 µM | > 100 µM | > 100 µM | > 100 µM | > 100 µM | > 100 µM | – | – | – | – | – | – |
| O=C(c1ccccc1)c1ccc2nc(-c3c(Cl)c(Cl)c(Cl)c(Cl)c3C(=O)Nc3ccco3)[nH]c2c1 | 92.2 µM | > 100 µM | > 100 µM | > 100 µM | > 100 µM | > 100 µM | > 100 µM | 81.4 µM | > 100 µM | > 100 µM | – | – | – | – | – | – |
| CCn1c(SCc2nnc(Nc3ccccc3)s2)nc2ccccc2c1=O | 3.92 µM | 9.04 µM | 36.5 µM | 12.5 µM | > 61.4 µM | > 93.6 µM | 7.75 µM | 7.63 µM | 5.09 µM | 27 µM | – | – | – | – | – | – |
| O=[N+]([O-])c1cccc([N+](=O)[O-])c1Cl | 38.8 µM | 7.68 µM | 11.4 µM | 45.1 µM | > 100 µM | > 100 µM | 68.4 µM | 29.5 µM | 31.5 µM | 14.7 µM | – | – | – | – | – | – |
| C=C(C)C(=O)O[C@H]1CC2(CO)O[C@@H]2CC/C(COC(C)=O)=C/C2OC(=O)C(=C)[C@@H]21 (stereo partly specified) | > 100 µM | > 58.8 µM | > 100 µM | > 100 µM | 49.1 µM | 57.7 µM | > 100 µM | 31.6 µM | 49.8 µM | > 79.2 µM | – | – | – | – | – | – |
| Cn1c(O)c(/C=N/c2ncccn2)c(=O)[nH]c1=O | > 100 µM | > 100 µM | > 100 µM | > 100 µM | > 100 µM | > 100 µM | > 100 µM | > 100 µM | > 100 µM | > 100 µM | – | – | – | – | – | – |
| O=C1Sc2cc3ccccc3cc2C(=O)Sc2cc3ccccc3cc21 | > 100 µM | > 90.1 µM | > 100 µM | > 90.5 µM | > 63.9 µM | > 100 µM | > 100 µM | 41.5 µM | > 89.2 µM | > 75 µM | – | – | – | – | – | – |
| C=C(C)[C@@H]1CC[C@]2(C(=O)OC3OC(COC4OC(CO)C(OC5OC(C)C(O)C(O)C5O)C(O)C4O)C(O)C(O)C3O)CC[C@]3(C)[C@H](CC[C@@H]4[C@@]5(C)CC[C@H](O)[C@@](C)(CO)[C@@H]5CC[C@]43C)[C@@H]12 (stereo partly specified) | > 10 µM | > 9.66 µM | > 10 µM | > 10 µM | > 10 µM | > 10 µM | > 10 µM | 9.56 µM | > 10 µM | > 10 µM | – | – | – | – | – | – |
| CC(C)Oc1cc2c(cc1O)CC[C@@H]1[C@@H]2CC[C@]2(C)[C@@H](O)CC[C@@H]12 | 26.9 µM | > 20 µM | 59.7 µM | 23 µM | 18.4 µM | 30.3 µM | 18.4 µM | 6.75 µM | 60.6 µM | 35.7 µM | – | – | – | – | – | – |
| Cc1cc2nc3c(N)nn(CCN(C)C)c3nc2cc1C | > 100 µM | > 100 µM | > 100 µM | > 100 µM | > 100 µM | > 100 µM | 79.4 µM | > 100 µM | > 100 µM | > 100 µM | – | – | – | – | – | – |
| CCOC(=O)COC1=Nc2cc(OC)c(OC)c3nc(Cl)cc(c23)C1=O | 23.5 µM | 3.58 µM | 3.32 µM | 6.37 µM | 3.08 µM | 3.46 µM | 28.6 µM | 3.25 µM | 9.8 µM | 24 µM | – | – | – | – | – | – |
| COC(CC1(CCNc2ccccc2)C(=O)N(COCC[Si](C)(C)C)c2ccccc21)OC (stereo unspecified) | 47.5 µM | > 62.2 µM | 64.7 µM | 30 µM | 6.92 µM | 30.4 µM | 21.4 µM | 24.2 µM | 35.1 µM | 56.3 µM | – | – | – | – | – | – |
| CCC(=O)Nc1ccc(N2C(=O)/C(=C/c3ccc(O)c(OC)c3)N=C2c2ccccc2)cc1 | 36.6 µM | > 100 µM | > 100 µM | > 100 µM | > 100 µM | > 100 µM | 50.5 µM | > 100 µM | > 100 µM | > 100 µM | – | – | – | – | – | – |
| COC(C[C@H]1CCCC[C@]1(O)/C(=C\CO[Si](C(C)C)(C(C)C)C(C)C)Sc1ccccc1)OC | > 100 µM | > 100 µM | > 100 µM | > 100 µM | > 100 µM | > 100 µM | 62.4 µM | 39.6 µM | > 100 µM | 40.8 µM | – | – | – | – | – | – |
| CCC1(O)CC(O)c2c(O)c3c(c(O)c2C1C(=O)OC)C(=O)c1cccc(O)c1C3=O (stereo unspecified) | 18.4 µM | 15.3 µM | 21.8 µM | 14.1 µM | 14.1 µM | 16.9 µM | 18.1 µM | 4.96 µM | 5.88 µM | 32.8 µM | – | – | – | – | – | – |
| O=c1[nH]nc(N/N=C\c2ccc(Cl)cc2)c2ccccc12 | 51.2 µM | 34 µM | 72 µM | > 100 µM | 35.4 µM | 64 µM | 57.4 µM | 48 µM | 54.8 µM | 69.2 µM | – | – | – | – | – | – |
